Six compounds from ChEMBL document CHEMBL1157444, “Sucutiniranes A and B, new cassane-type diterpenes from Bowdichia nitida” (Bioorg Med Chem Lett, 2008) can be followed below.

In brackets after ≈: the same amount, converted by molar mass. Activity calls are given as the source filed them. No cut-off for these calls is given here. A value given as a limit tells only on which side of the number the result lay.

Assay [1] deals with Plasmodium falciparum. In words: Antiplasmodial activity against Plasmodium falciparum 3D7 at 1 ug/mL. In kind it is functional, organism-based.
Assay [2] is described as follows: Cytotoxicity against human COLO201 cells. Conditions: COLO 201. In kind it is cell-based.
The subject of assay [3] is Plasmodium falciparum. In words: Antiplasmodial activity against Plasmodium falciparum 3D7. Format: functional, organism-based.

For the compound `CC(=O)O[C@H]1C[C@H]2[C@@H](C)c3ccoc3C[C@@H]2[C@@]2(C)CCCC(C)(C)[C@H]12`, in assay [1], the outcome was inactive. The midpoint of inhibition in assay [2], the IC50, lay at 86.6 µg/mL (≈ 251 µM).

For the compound `CC(=O)O[C@H]1C[C@H]2[C@@H](C)C3=CC(=O)O[C@@H]3C[C@@H]2[C@@]2(C)CCCC(C)(C)[C@H]12` [12-DEOXY-SUCUTINIRANE A], in assay [1], the result was inactive. In addition, the IC50 (in general, the concentration that inhibits the measured activity by half) in assay [2] was over 100 µg/mL.

Take `CC(=O)O[C@H]1C[C@@H]([C@@H](C)C2=CC(=O)OC2)[C@H](C=O)[C@@]2(C)CCCC(C)(C)[C@H]12`: in assay [1], the result was inactive. For the same compound, the IC50 in assay [2] was over 100 µg/mL.

As for `CC(=O)O[C@H]1C[C@@H]2[C@H]([C@H](O)[C@]3(C=COC3=O)[C@@H]2C)[C@@]2(C)CCCC(C)(C)[C@H]12`, in assay [1], the outcome was inactive. This compound had an IC50 in assay [2] of over 100 µg/mL.

Turning to `CC(=O)O[C@H]1C[C@H]2[C@@H](C)C3=CC(=O)O[C@]3(O)C[C@@H]2[C@@]2(C)CCCC(C)(C)[C@H]12` [SUCUTINIRANE A], the outcome in assay [1] was inactive. In assay [2], this compound registered an IC50 of 37.3 µg/mL (≈ 99.1 µM).

With `CC(=O)O[C@H]1[C@H](OC(C)=O)[C@H]2C(C)(C)CCC[C@]2(C)[C@H]2Cc3occc3[C@H](C)[C@H]12`, the IC50 in assay [2] was over 100 µg/mL; in assay [3], 0.39 µg/mL (≈ 0.969 µM).
